Measured values from patent US9315539B2 (YALE UNIVERSITY, priority 2002, dated 2016).
“Also recorded” adds a separate entry of the source.

What was measured:
estrogen receptor = target: T1, estrogen receptor (Homo sapiens, UniProt P03372); experiment: Estrogen receptor competition assay (relative binding affinity); conditions: estradiol (E2) = 100%
T1 sequence (P03372 1-595): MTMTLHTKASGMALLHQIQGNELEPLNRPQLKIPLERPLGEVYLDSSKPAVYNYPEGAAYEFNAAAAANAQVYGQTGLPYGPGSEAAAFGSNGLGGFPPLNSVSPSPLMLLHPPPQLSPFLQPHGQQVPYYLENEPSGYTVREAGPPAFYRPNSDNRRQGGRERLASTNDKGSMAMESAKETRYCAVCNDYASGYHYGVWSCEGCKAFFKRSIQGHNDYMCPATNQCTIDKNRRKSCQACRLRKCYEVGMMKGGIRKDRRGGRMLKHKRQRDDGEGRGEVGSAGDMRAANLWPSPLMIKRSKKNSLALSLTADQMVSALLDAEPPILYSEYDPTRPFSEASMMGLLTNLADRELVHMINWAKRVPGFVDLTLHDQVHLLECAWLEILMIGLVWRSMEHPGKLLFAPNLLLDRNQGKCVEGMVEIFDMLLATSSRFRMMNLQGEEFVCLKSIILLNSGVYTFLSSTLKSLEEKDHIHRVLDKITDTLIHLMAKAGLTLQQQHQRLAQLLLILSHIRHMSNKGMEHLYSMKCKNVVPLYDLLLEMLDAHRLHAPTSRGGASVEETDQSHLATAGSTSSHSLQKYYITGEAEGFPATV

Ishikawa cell [1] = experiment: Agonist/antagonist character of the analogs (Tables 1 and 2); format: cell-based; conditions: estrogen agonism or antagonism, assay not named in the tables
Excerpt: From the estrogen competition assay, we expected that the methyl and ethyl esters, E11-2,1 and E11-2,2 would have relatively high activity in the estrogen potency assay, induction of alkaline phosphatase in Ishikawa cells. However, the results were quite unexpected (see FIG. 5, attached). […] We had never previously seen this disparity between estrogen receptor binding and biological activity. It occurred to us that we were observing the results that would obtained with a SERM and that E11-2,2 was in fact an antiestrogen. Consequently, we repeated the Ishikawa assay as an antiestrogenic assay (the assay is run in the presence of specified amounts of estradiol). […] We continued our synthesis of various analogs in order to define the chemical characteristics that lead to antiestrogenic effects. […] In this regard, several compounds are described with a 17α-ethynyl group in order to protect the C-17 hydroxyl from biological oxidation.

Ishikawa cell [2] = experiment: Antiestrogen Ishikawa cell assay (run in the presence of estradiol); format: cell-based; conditions: for antiestrogenic activity (in words): inhibition of estradiol-stimulated alkaline phosphatase
Excerpt: (§1) From the estrogen competition assay, we expected that the methyl and ethyl esters, E11-2,1 and E11-2,2 would have relatively high activity in the estrogen potency assay, induction of alkaline phosphatase in Ishikawa cells. However, the results were quite unexpected (see FIG. 5, attached). […] We had never previously seen this disparity between estrogen receptor binding and biological activity. It occurred to us that we were observing the results that would obtained with a SERM and that E11-2,2 was in fact an antiestrogen. Consequently, we repeated the Ishikawa assay as an antiestrogenic assay (the assay is run in the presence of specified amounts of estradiol).

Ishikawa cells = experiment: Ishikawa estrogenic potency assay, induction of alkaline phosphatase; format: cell-based; conditions: for estrogenic activity (in words): induction of alkaline phosphatase in Ishikawa cells; for relative stimulatory activity (RSA): induction of alkaline phosphatase, estradiol set at 100%
Excerpt: as §1, with “Ishikawa Estrogenic Potency Assay From” for “From”

[3] = test system: uterotrophic action of estradiol; experiment: In vivo uterotrophic assay, antiestrogenic action; design: species or system rat; conditions: immature female rats; for effect on uterotrophic action of estradiol: 20 ng estradiol
Protocol: In Vivo Uterotropic Activity
The analogs were administered concurrently in the same oil.

SMILES	agonist / antagonist character (Ishikawa cell [1])	other results
CCOC(=O)C[C@H]1C[C@]2(C)[C@@H](O)CC[C@H]2[C@@H]2CCc3cc(O)ccc3[C@@H]12 [E11-2,2]	antiestrogen; also recorded: strong antagonist	relative binding affinity (RBA) (estrogen receptor): 45%; antiestrogenic activity (in words) (Ishikawa cell [2]): inhibited the estrogenic stimulation of alkaline phosphatase in the Ishikawa cell, with very high potency; Ki (Ishikawa cell [2]; inhibition of estrogenic stimulation of alkaline phosphatase, several assays): 1 to 2 nM; estrogenic activity (in words) (Ishikawa cells): almost inactive; effect on uterotrophic action of estradiol ([3]; 3 μg analog): partially active; effect on uterotrophic action of estradiol ([3]; 10 μg analog): completely abolished the effect of 20 ng estradiol; effect on uterotrophic action of estradiol (uterine weight) ([3]; 100 μg analog, 50 ng estradiol, FIG. 7): inhibiting the action of 50 ng of estradiol
CC(=O)OC[C@H]1C[C@]2(C)[C@@H](O)CC[C@H]2[C@@H]2CCc3cc(O)ccc3[C@@H]12 [E11-1,2Rev]	agonist	–
CCCOCCC1CC2(C)C(O)CCC2C2CCc3cc(O)ccc3C12 (centres unmarked) [E11-2,3ether]	strong antagonist	–
CC(C)(C)C(=O)OCCC[C@H]1C[C@]2(C)[C@@H](O)CC[C@H]2[C@@H]2CCc3cc(O)ccc3[C@@H]12 [E11-3,piv Rev]	antagonist	–
CCCC(=O)C[C@H]1C[C@]2(C)[C@@H](O)CC[C@H]2[C@@H]2CCc3cc(O)ccc3[C@@H]12 [E11-2K3]	antagonist	effect on uterotrophic response of estradiol ([3]; 30 μg analog): completely abolished the uterotrophic response of estradiol
CC(C)(C)COC(=O)C[C@H]1C[C@]2(C)[C@@H](O)CC[C@H]2[C@@H]2CCc3cc(O)ccc3[C@@H]12 [E11-2,5neo]	antagonist	–
COCCCC1CC2(C)C(O)CCC2C2CCc3cc(O)ccc3C12 (centres unmarked) [E11-3,1 ether]	antagonist	–
CCCOC(=O)C[C@H]1C[C@]2(C)[C@@H](O)CC[C@H]2[C@@H]2CCc3cc(O)ccc3[C@@H]12 [E11-2,3]	strong antagonist	–
CC(C)OC(=O)C[C@H]1C[C@]2(C)[C@@H](O)CC[C@H]2[C@@H]2CCc3cc(O)ccc3[C@@H]12 [E11-2,3i]	strong antagonist	–
CC(C)OCCCC1CC2(C)C(O)CCC2C2CCc3cc(O)ccc3C12 (centres unmarked) [E11-3,iPr ether]	strong antagonist	–
CC(C)OCCC1CC2(C)C(O)CCC2C2CCc3cc(O)ccc3C12 (centres unmarked) [E11-2,iPr ether]	strong antagonist	–
CCOCCC1CC2(C)C(O)CCC2C2CCc3cc(O)ccc3C12 (centres unmarked) [E11-2,2ether]	strong antagonist	inhibition of the effect of estradiol ([3]; 30 μg analog): about 50%
COCCC1CC2(C)C(O)CCC2C2CCc3cc(O)ccc3C12 (centres unmarked) [E11-2,1ether]	agonist/slight antagonist	–
CCCCOC(=O)C[C@H]1C[C@]2(C)[C@@H](O)CC[C@H]2[C@@H]2CCc3cc(O)ccc3[C@@H]12 [E11-2,4]	strong antagonist	–
C[C@]12C[C@H](CC(=O)O)[C@@H]3c4ccc(O)cc4CC[C@H]3[C@@H]1CC[C@@H]2O [E11-2,0]	–	relative binding affinity (RBA) (estrogen receptor): 0.3%; antiestrogenic activity (in words) (Ishikawa cell [2]): neither E11-2,1 nor E11-2,0 showed any antiestrogenic activity; estrogenic activity (in words) (Ishikawa cells): more active than E11-2,2
COC(=O)CC[C@H]1C[C@]2(C)[C@@H](O)CC[C@H]2[C@@H]2CCc3cc(O)ccc3[C@@H]12 [E11-3,1]	antagonist	–

SMILES	agonist / antagonist character (Ishikawa cell [1])	other results
C[C@]12C[C@H](CCOC3CC3)[C@@H]3c4ccc(O)cc4CC[C@H]3[C@@H]1CC[C@@H]2O [E11-2,cyclo-Pr ether]	strong antagonist	–
C[C@]12CC[C@@H]3c4ccc(O)cc4CC[C@H]3[C@@H]1CCC2=O [estrone, reference compound]	–	relative stimulatory activity (RSA) (Ishikawa cells): 4%
CCOCCCC1CC2(C)C(O)CCC2C2CCc3cc(O)ccc3C12 (centres unmarked) [E11-3,2 ether]	strong antagonist	–
CCOC(=S)C[C@H]1C[C@]2(C)[C@@H](O)CC[C@H]2[C@@H]2CCc3cc(O)ccc3[C@@H]12 [E11-2S2]	antagonist	agonist / antagonist character (Ishikawa cell [1]; listed as E11-2S,2): strong antagonist
CC(C)(C)OCCCC1CC2(C)C(O)CCC2C2CCc3cc(O)ccc3C12 (centres unmarked) [E11-3,tBu ether]	extremely strong antagonists; also recorded: very strong antagonist	–
CCOCC1CC2(C)C(O)CCC2C2CCc3cc(O)ccc3C12 (centres unmarked) [E11-1,2ether]	agonist	–
CC(=O)OCCC[C@H]1C[C@]2(C)[C@@H](O)CC[C@H]2[C@@H]2CCc3cc(O)ccc3[C@@H]12 [E11-3,2Rev]	antagonist	–
CCCOCC1CC2(C)C(O)CCC2C2CCc3cc(O)ccc3C12 (centres unmarked) [E11-1,3ether]	strong antagonist	–
C[C@]12C[C@H](CCOC3CCCC3)[C@@H]3c4ccc(O)cc4CC[C@H]3[C@@H]1CC[C@@H]2O [E11-2,cyclo-Pent ether]	extremely strong antagonists; also recorded: very strong antagonist	–
CC12CC(CCCOCCF)C3c4ccc(O)cc4CCC3C1CCC2O (centres unmarked) [E11-3,2F1 ether]	strong antagonist	–
CCC(=O)C[C@H]1C[C@]2(C)[C@@H](O)CC[C@H]2[C@@H]2CCc3cc(O)ccc3[C@@H]12 [E11-2K2]	weak agonist	–
C#CC1(O)CCC2C3CCc4cc(O)ccc4C3C(CCCOC(C)(C)C)CC21C (stereo not drawn) [17α-ethynyl-E11-3,tBu ether]	very strong antagonist	–
COC(=O)C[C@H]1C[C@]2(C)[C@@H](O)CC[C@H]2[C@@H]2CCc3cc(O)ccc3[C@@H]12 [E11-2,1]	estrogen	relative binding affinity (RBA) (estrogen receptor): 24%; antiestrogenic activity (in words) (Ishikawa cell [2]): neither E11-2,1 nor E11-2,0 showed any antiestrogenic activity; relative stimulatory activity (RSA) (Ishikawa cells): 16%
CC(=O)OCC[C@H]1C[C@]2(C)[C@@H](O)CC[C@H]2[C@@H]2CCc3cc(O)ccc3[C@@H]12 [E11-2,2Rev]	agonist	–
CC(C)(C)OCCC1CC2(C)C(O)CCC2C2CCc3cc(O)ccc3C12 (centres unmarked) [E11-2,tBu ether]	very weak antagonist	–
C#CC1(O)CCC2C3CCc4cc(O)ccc4C3C(CCCOC(C)C)CC21C (stereo not drawn) [17α-ethynyl-E11-3,iPr ether]	very strong antagonist	–
